Measured values reported in BindingDB's records for doi:10.1021/cb400371r (University of Konstanz, 2013).

Experiments:
[1] = target: T1, Fucose-binding lectin PA-IIL (Pseudomonas aeruginosa (strain ATCC 15692 / DSM 22644 / CIP 104116 / JCM 14847 / LMG 12228 / 1C / PRS 101 / PAO1), UniProt Q9HYN5)
[2] = target: T1, Fucose-binding lectin PA-IIL; remark: listed apart in the source

T1 sequence (Q9HYN5 whole entry): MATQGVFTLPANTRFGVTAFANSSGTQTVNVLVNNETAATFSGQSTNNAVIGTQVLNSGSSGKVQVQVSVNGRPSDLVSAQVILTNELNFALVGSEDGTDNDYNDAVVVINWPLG

Row | SMILES | IC50 [1] [µM] | EC50 [2] [µM]
1 | COC1O[C@H](CNC(C)=O)[C@@H](O)C(O)[C@@H]1O (some centres not stated) [LecB Inhibitor Amides 4a] | 281 | –
2 | COC1O[C@H](CNC(=O)c2ccc([N+](=O)O)cc2)[C@@H](O)C(O)[C@@H]1O (some centres not stated) [LecB Inhibitor Amides 4c] | 75.8 | –
3 | COC1O[C@H](CNC(=O)c2cc([N+](=O)O)cc([N+](=O)O)c2)[C@@H](O)C(O)[C@@H]1O (some centres not stated) [LecB Inhibitor Amides 4d] | 121 | –
4 | COC1O[C@H](CNC(=O)Cc2ccccc2)[C@@H](O)C(O)[C@@H]1O (some centres not stated) [LecB Inhibitor Amides 4e] | 73.8 | –
5 | COC1O[C@H](CNC(=O)C(c2ccccc2)c2ccccc2)[C@@H](O)C(O)[C@@H]1O (some centres not stated) [LecB Inhibitor Amides 4f] | 161 | –
6 | COC1O[C@H](CNCc2ccccc2)[C@@H](O)C(O)[C@@H]1O (some centres not stated) [LecB Inhibitor Amines 3a] | 227 | –
7 | COC1O[C@H](CNCc2ccc([N+](=O)O)cc2)[C@@H](O)C(O)[C@@H]1O (some centres not stated) [LecB Inhibitor Amines 3b] | 117 | –
8 | COC1O[C@H](CNCc2ccc(C#N)cc2)[C@@H](O)C(O)[C@@H]1O (some centres not stated) [LecB Inhibitor Amines 3c] | 115 | –
9 | COC1O[C@H](CNCc2ccc(Cl)cc2)[C@@H](O)C(O)[C@@H]1O (some centres not stated) [LecB Inhibitor Amines 3d] | 212 | –
10 | COC1O[C@H](CN)[C@@H](O)C(O)[C@@H]1O (some centres not stated) [LecB Inhibitor Amines 3e] | 353 | –
11 | CC1O[C@@H](OCCNC(=S)Nc2ccc(-c3c4ccc(=O)cc-4oc4cc(O)ccc34)c(C(=O)O)c2)[C@@H](O)C(O)[C@@H]1O (some centres not stated) [LecB Inhibitor Ligand 6] | 2.74 | 0.697
12 | COC1O[C@H](CNS(=O)(=O)c2ccc(C)cc2)[C@@H](O)C(O)[C@@H]1O (some centres not stated) [LecB Inhibitor Sulfonamides 5b] | 49.7 | –
13 | COC1O[C@H](CNS(=O)(=O)c2ccc(Br)cc2)[C@@H](O)C(O)[C@@H]1O (some centres not stated) [LecB Inhibitor Sulfonamides 5c] | 20.9 | –
14 | COC1O[C@H](CNS(=O)(=O)c2ccc([N+](=O)O)cc2)[C@@H](O)C(O)[C@@H]1O (some centres not stated) [LecB Inhibitor Sulfonamides 5d] | 36.1 | –
15 | COC1O[C@H](CNS(=O)(=O)/C=C/c2ccccc2)[C@@H](O)C(O)[C@@H]1O (some centres not stated) [LecB Inhibitor Sulfonamides 5g] | 86.9 | –
16 | COC1O[C@H](Cn2cc(CO)nn2)[C@@H](O)C(O)[C@@H]1O (some centres not stated) [LecB Inhibitor Triazoles 2a] | 578 | –
17 | COC1O[C@H](Cn2cc(CCc3ccccc3)nn2)[C@@H](O)C(O)[C@@H]1O (some centres not stated) [LecB Inhibitor Triazoles 2b] | 264 | –
18 | COC1O[C@H](Cn2cc(-c3ccccc3)nn2)[C@@H](O)C(O)[C@@H]1O (some centres not stated) [LecB Inhibitor Triazoles 2c] | 373 | –
19 | COC1O[C@H](Cn2cc(-c3cccc(C)c3)nn2)[C@@H](O)C(O)[C@@H]1O (some centres not stated) [LecB Inhibitor Triazoles 2d] | 279 | –
20 | COC1O[C@H](Cn2cc(-c3ccc(C)cc3)nn2)[C@@H](O)C(O)[C@@H]1O (some centres not stated) [LecB Inhibitor Triazoles 2e] | 294 | –
21 | COC1O[C@H](Cn2cc(-c3ccc(F)cc3)nn2)[C@@H](O)C(O)[C@@H]1O (some centres not stated) [LecB Inhibitor Triazoles 2g] | 240 | –
